Where a name gives a salt, the structure may show the parent alone.
Tested on: liver
Assay: Transcriptional profiling on Affymetrix GeneChips, single dose, naïve mice: liver
Format: in vivo, C57BL/6 mice
Settings: liver
Procedure: Treated mice were sacrificed at 2, 7, or 12 hours. Tissues (liver, spleen, kidney, jejunum, cortex, hippocampus, striatum and whole blood) were collected and analyzed by transcriptional profiling on mouse Affymetrix GeneChips.
Tissues (liver, spleen, kidney, jejunum, cortex, hippocampus, striatum and whole blood) were collected and analyzed by transcriptional profiling on mouse Affymetrix GeneChips.
Animals were exposed to CO2 and whole blood collected via cardiac puncture. Two 100 μl aliquots of whole blood were collected in 1.5 mL microcentrifuge tubes and snap frozen in liquid nitrogen. Peripheral (liver, spleen, kidney and jejunum) and CNS brain (cerebellum, hippocampus, striatum and cortex) tissues were harvested and snap frozen in liquid nitrogen, with special care taken to collect tissues of similar size and from the same location. All samples were stored at −80° C. until RNA extraction was conducted.
For RNA preparation, frozen tissues were placed in 2 mL RNAse-free 96-well blocks with 1.5 mL QIAzol Lysis Reagent (QIAgen) and a 3.2 mm stainless steel bead (BioSpec Products, Bartlesville, Okla.). Tissues were disrupted for four cycles of 45 seconds in a Mini-Beadbeater (Biospec Products). RNA was extracted in chloroform and the aqueous phase was mixed with an equal volume of 70% ethanol. Extracted RNA was applied to RNeasy 96 plates and purified by the spin method according to the manufacturer's protocol (RNeasy 96 Universal Tissue Protocol, QIAgen, Hilden Germany).
Automated sample amplifications and biotin labelings were carried out using the NuGEN Ovation RNA Amplification system V2 (Cat #3100), Ovation WB reagent (Cat #1300) and Encore Biotin module (Cat #4200) (NuGEN Technologies, Inc, San Carlos, Calif.) according to manufacturer's recommendations using an Arrayplex automated liquid handler (Beckman Coulter, Indianapolis, Ind.). Two micrograms of biotin labeled sscDNA probe were hybridized to Affymetrix GeneChip Affymetrix HT_MG-430_PM plate arrays with modified conditions as described in Allaire et al. Washing and staining of the hybridized arrays were completed as described in the GeneChip Expression analysis technical manual for HT plate arrays using the Genechip® Array Station (Affymetrix, Santa Clara, Calif.) with modifications as described in Allaire et al. The processed GeneChip® plate arrays were scanned using GeneTitan scanner (Affymetrix, Santa Clara, Calif.).
Affymetrix scans were subject to quality control (QC) measures. These tests included a visual inspection of the distribution of raw signal intensities and an assessment of RNA degradation, relative log expression (RLE), and normalized unsealed standard error (NUSE). All sample scans that passed these QC metrics were included in the analysis.
All CEL files were subjected to GC-content-based Robust Multi-array Average (GCRMA) normalization (version 2.20.0) (Irizarry R A, et al. Nucleic Acids Res 2003; 31:e15; Li C, et al. Genome Biol 2001; 2:[…]0032). Expression levels were log (base 2) transformed.
All calculations and analyses were carried out using R (version 2.11.1) and Bioconductor computational tools (Gentleman R. Springer Science+Business Media 2005).

[1] = 100 mg/kg, 7 hr, vs matched vehicle controls
[2] = 100 mg/kg, 12 hr, vs matched vehicle controls

Q: Which results are given for `COC(=O)/C=C/C(=O)O` [MMF, monomethyl fumarate]?
A: Murine Liver DEGs: Srxn1 (1419942_PM_at) (100 mg/kg, 2 hr, vs matched vehicle controls): 1.68; Murine Liver DEGs: Akr1b8 (1448894_PM_at) [1]: 1.75; Murine Liver DEGs: Bmp6 (1450759_PM_at) [1]: 1.65; Murine Liver DEGs: Cda (1427357_PM_at) [1]: 1.92; Murine Liver DEGs: Clec4n (1419627_PM_s_at) [1]: 2.40; Murine Liver DEGs: Erc2 (1434582_PM_at) [1]: −1.95; Murine Liver DEGs: Fzd8 (1445815_PM_at) [1]: −1.81; Murine Liver DEGs: G6pdx (1448354_PM_at) [1]: 1.61; Murine Liver DEGs: Irak3 (1435040_PM_at) [1]: 1.53; Murine Liver DEGs: Marco (1449498_PM_at) [1]: 2.44; Murine Liver DEGs: Nqo1 (1423627_PM_at) [1]: 2.20; Murine Liver DEGs: Pir (1429001_PM_at) [1]: 1.50; Murine Liver DEGs: Srxn1 (1419942_PM_at) [1]: 1.52; Murine Liver DEGs: Ablim1 (1453103_PM_at) [2]: −1.51; Murine Liver DEGs: Atp6v0d2 (1444176_PM_at) [2]: 1.84; Murine Liver DEGs: Car3 (1460256_PM_at) [2]: −1.57; Murine Liver DEGs: Ccnf (1443807_PM_x_at) [2]: 1.57; Murine Liver DEGs: Clmn (1439117_PM_at) [2]: −1.54; Murine Liver DEGs: Ctla2a (1448471_PM_a_at) [2]: 1.63; Murine Liver DEGs: Dnajc12 (1417441_PM_at) [2]: 2.53; Murine Liver DEGs: Fndc3b (1433833_PM_at) [2]: 1.66; Murine Liver DEGs: Gadd45b (1450971_PM_at) [2]: 1.50; Murine Liver DEGs: Gm3579 (1431214_PM_at) [2]: 2.74; Murine Liver DEGs: Hyou1 (1423290_PM_at) [2]: 1.82; Murine Liver DEGs: Lrrc59 (1416235_PM_at) [2]: 1.65; Murine Liver DEGs: Nme6 (1448574_PM_at) [2]: 1.57; Murine Liver DEGs: Ppapdc1b (1428154_PM_s_at) [2]: 1.87; Murine Liver DEGs: Ppm1k (1441988_PM_at) [2]: −1.56; Murine Liver DEGs: Prtn3 (1419669_PM_at) [2]: 4.46; Abcc1 (probe set 1452233_PM_at) differential expression (2 hr): 1.86; Akr1b8 (probe set 1448894_PM_at) differential expression (2 hr): 2.27; Ampd3 (probe set 1422573_PM_at) differential expression (2 hr): 1.70; Caprin1 (probe set 1448348_PM_at) differential expression (2 hr): −1.56; Clec4d (probe set 1420804_PM_s_at) differential expression (2 hr): 2.05; Cmah (probe set 1447019_PM_at) differential expression (2 hr): −1.55; Csnk2a1 (probe set 1419038_PM_a_at) differential expression (2 hr): −1.62; Figf (probe set 1438953_PM_at) differential expression (2 hr): 2.25; Fxr1 (probe set 1452247_PM_at) differential expression (2 hr): −1.53; Gclc (probe set 1424296_PM_at) differential expression (2 hr): 1.72; Hmox1 (probe set 1448239_PM_at) differential expression (2 hr): 2.41; Meis2 (probe set 1440091_PM_at) differential expression (2 hr): −1.67; Mkln1 (probe set 1416734_PM_at) differential expression (2 hr): −1.69; Pgd (probe set 1436771_PM_x_at) differential expression (2 hr): 1.61; Ppfibp2 (probe set 1417801_PM_a_at) differential expression (2 hr): 2.55; Prpf38b (probe set 1455016_PM_at) differential expression (2 hr): −1.53; Ptprb (probe set 1453908_PM_at) differential expression (2 hr): −1.76; Ptprg (probe set 1456070_PM_at) differential expression (2 hr): −1.85; Srxn1 (probe set 1419942_PM_at) differential expression (2 hr): 1.68; Akr1b8 (probe set 1448894_PM_at) differential expression (7 hr): 1.75; Bmp6 (probe set 1450759_PM_at) differential expression (7 hr): 1.65; Cda (probe set 1427357_PM_at) differential expression (7 hr): 1.92; Clec4n (probe set 1419627_PM_s_at) differential expression (7 hr): 2.40; Erc2 (probe set 1434582_PM_at) differential expression (7 hr): −1.95; Fzd8 (probe set 1445815_PM_at) differential expression (7 hr): −1.81; G6pdx (probe set 1448354_PM_at) differential expression (7 hr): 1.61; Irak3 (probe set 1435040_PM_at) differential expression (7 hr): 1.53; Marco (probe set 1449498_PM_at) differential expression (7 hr): 2.44; Nqo1 (probe set 1423627_PM_at) differential expression (7 hr): 2.20; Pir (probe set 1429001_PM_at) differential expression (7 hr): 1.50; Srxn1 (probe set 1419942_PM_at) differential expression (7 hr): 1.52; Ablim1 (probe set 1453103_PM_at) differential expression (12 hr): −1.51; Atp6v0d2 (probe set 1444176_PM_at) differential expression (12 hr): 1.84; Car3 (probe set 1460256_PM_at) differential expression (12 hr): −1.57; Ccnf (probe set 1443807_PM_x_at) differential expression (12 hr): 1.57; Clmn (probe set 1439117_PM_at) differential expression (12 hr): −1.54; Ctla2a (probe set 1448471_PM_a_at) differential expression (12 hr): 1.63; Dnajc12 (probe set 1417441_PM_at) differential expression (12 hr): 2.53; Fndc3b (probe set 1433833_PM_at) differential expression (12 hr): 1.66; Gadd45b (probe set 1450971_PM_at) differential expression (12 hr): 1.50; Gm3579 (probe set 1431214_PM_at) differential expression (12 hr): 2.74; Hyou1 (probe set 1423290_PM_at) differential expression (12 hr): 1.82; Lrrc59 (probe set 1416235_PM_at) differential expression (12 hr): 1.65; Nme6 (probe set 1448574_PM_at) differential expression (12 hr): 1.57; Ppapdc1b (probe set 1428154_PM_s_at) differential expression (12 hr): 1.87; Ppm1k (probe set 1441988_PM_at) differential expression (12 hr): −1.56; Prtn3 (probe set 1419669_PM_at) differential expression (12 hr): 4.46
